Assay type in all cases: in vivo
In assay [1] the test system is Lolium rigidum (LOLRI). Nature of the assay: Herbicidal pre-emergence action, 1280 g/ha (Table A5). The note with it: visual grading after ca. 3 weeks vs untreated controls. The procedure, abridged:
(§1)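 Compounds were formulated as WP or EC and sprayed onto the covering soil of freshly sown pots (sandy loam) in 600 L water/ha with 0.5% additive. Pots were kept in a greenhouse, and damage was scored visually after ca. 3 weeks as % effect versus untreated controls (100% = dead).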

Assay [2] has as its system Matricaria inodora (MATIN). Nature of the assay: Herbicidal pre-emergence action, 1280 g/ha (Table A6). The conditions noted are these: visual grading after ca. 3 weeks vs untreated controls. Summed up:
as §1

Assay [3] concerns Stellaria media (STEME). Description: Herbicidal pre-emergence action, 1280 g/ha (Table A9). The note with it: visual grading after ca. 3 weeks vs untreated controls. Summed up: as §1
The test system of assay [4] is Veronica persica (VERPE). Nature of the assay: Herbicidal pre-emergence action, 1280 g/ha (Table A10). The note with it: visual grading after ca. 3 weeks vs untreated controls. The source says: (§2) Seeds of mono- and dicotyledonous weed plants were sown in plastic pots (double sowings with one species of mono- and one species of dicotyledonous weed plants per pot), in sandy loam, and covered with soil. The compounds according to the invention, formulated in the form of wettable powders (WP) or as emulsifiable concentrates (EC), were applied to the surface of the covering soil as an aqueous suspension or as an emulsion, with the addition of 0.5% of an additive, at an application rate of 600 litres of water per hectare (converted). Following treatment, the pots were placed in a greenhouse and kept under optimum growth conditions for the test plants. The visual grading of the damage to the test plants was carried out after ca. 3 weeks in comparison to untreated controls (herbicidal effect in percent (%): 100% effect=plants have died, 0% effect=as control plants). Tables A1 to A11 below, show the effects of selected compounds of the general formula (I) according to Table 1 on various harmful plants and an application rate corresponding to 1280 g/ha obtained by the experimental procedure mentioned above.

For assay [5], the system named is Amaranthus retroflexus (AMARE). Description: Herbicidal pre-emergence action, 1280 g/ha (Table A11). The note with it: visual grading after ca. 3 weeks vs untreated controls. Summed up: as §1
The subject of assay [6] is Abutilon theophrasti (ABUTH). Nature of the assay: Herbicidal post-emergence action, 1280 g/ha (Table B1). The conditions noted are these: visual assessment after ca. 3 weeks vs untreated controls. The procedure, abridged:
(§3)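 Post-emergence greenhouse pot test: weeds in sandy loam sprayed at single-leaf stage, 2–3 weeks after sowing, with WP or EC formulations plus 0.5% additive at 600 L water/ha. Effect scored visually ca. 3 weeks later versus untreated controls, 0% = as control, 100% = plants dead.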

For assay [7], the system named is Lolium rigidum (LOLRI). Nature of the assay: Herbicidal post-emergence action, 1280 g/ha (Table B5). The conditions noted are these: visual assessment after ca. 3 weeks vs untreated controls. Summed up: as §3
Assay [8] concerns Matricaria inodora (MATIN). Description: Herbicidal post-emergence action, 1280 g/ha (Table B6). The conditions noted are these: visual assessment after ca. 3 weeks vs untreated controls. Summed up: as §3
Assay [9] concerns Stellaria media (STEME). Nature of the assay: Herbicidal post-emergence action, 1280 g/ha (Table B9). The conditions noted are these: visual assessment after ca. 3 weeks vs untreated controls. The procedure, abridged: as §3
In assay [10] the test system is Amaranthus retroflexus (AMARE). Description: Herbicidal post-emergence action, 1280 g/ha, AMARE. The conditions noted are these: visual grading vs untreated controls. The procedure, abridged:
(§4)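 Pot-grown weeds in sandy loam sprayed post-emergence at the single-leaf stage, 2–3 weeks after sowing, with WP or EC formulations plus 0.5% additive in 600 L water/ha at 1280 g/ha. After ca. 3 weeks in the greenhouse, damage scored visually as % effect versus untreated controls (100% = plants dead).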

Assay [11] relates to Lolium rigidum (LOLRI). Nature of the assay: Herbicidal pre-emergence action, 320 g/ha (Table C2). The conditions noted are these: visual grading after ca. 3 weeks vs untreated controls. Summed up: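 Applied pre-emergence to the surface of soil covering weed seeds sown in sandy loam, as WP or EC formulations in water with 0.5% additive at 600 L/ha. Greenhouse-grown; damage graded visually at ca. 3 weeks as percent of untreated controls (100% = plants died).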

Assay [12] concerns Lolium rigidum (LOLRI). Nature of the assay: Herbicidal post-emergence action, 320 g/ha, LOLRI. The note with it: visual grading after ca. 3 weeks. Summed up:
(§5)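 Weeds grown in sandy loam were sprayed post-emergence at the single-leaf stage, 2–3 weeks after sowing. Compounds were formulated as WP or EC with 0.5% additive and applied at 320 g/ha in 600 L water/ha. After ~3 weeks in the greenhouse, damage was scored visually as % versus untreated controls (100% = dead).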

The test system of assay [13] is Stellaria media (STEME). Nature of the assay: Herbicidal post-emergence action, 320 g/ha, STEME. The conditions noted are these: visual grading after ca. 3 weeks. Summed up:
as §5

In assay [14] the test system is Amaranthus retroflexus (AMARE). Description: Herbicidal post-emergence action, 320 g/ha, AMARE. The note with it: visual grading after ca. 3 weeks. The procedure, abridged:
as §5

The test system of assay [15] is Kochia scoparia (KCHSC). Nature of the assay: Herbicidal pre-emergence action, 1280 g/ha (Table A4). The note with it: visual grading after ca. 3 weeks vs untreated controls. Summed up: as §1
In assay [16] the test system is Echinochloa crus-galli (ECHCG). Nature of the assay: Herbicidal post-emergence action, 1280 g/ha (Table B3). The note with it: visual assessment after ca. 3 weeks vs untreated controls. From the text: Seeds of mono- and dicotyledonous weed plants were sown in plastic pots (double sowings with one species of mono- and one species of dicotyledonous weed plants per pot), in sandy loam, covered with soil and grown under controlled growth conditions. 2 to 3 weeks after sowing, the test plants were sprayed in the single-leaf stage. The compounds according to the invention, formulated in the form of wettable powders (WP) or as emulsifiable concentrates (EC), were sprayed onto the green plant parts as an aqueous suspension or as an emulsion, with the addition of 0.5% of an additive, at an application rate of 600 litres of water per hectare (converted). The test plants were placed in the greenhouse for ca. 3 weeks under optimum growth conditions, and then the effect of the preparations was assessed visually in comparison with untreated controls (herbicidal effect in percent (%): 100% effect=plants have died, 0% effect=as control plants). Tables B1 to B11 below, show the effects of selected compounds of the general formula (I) according to Table 1 on various harmful plants using an application rate corresponding to 1280 g/ha obtained by the experimental procedure mentioned above.

For assay [17], the system named is Kochia scoparia (KCHSC). Description: Herbicidal post-emergence action, 1280 g/ha (Table B4). The conditions noted are these: visual assessment after ca. 3 weeks vs untreated controls. Summed up: as §3
For assay [18], the system named is Setaria viridis (SETVI). Description: Herbicidal post-emergence action, 1280 g/ha (Table B8). The conditions noted are these: visual assessment after ca. 3 weeks vs untreated controls. The procedure, abridged: as §3
Assay [19] deals with Veronica persica (VERPE). Description: Herbicidal post-emergence action, 1280 g/ha, VERPE. The note with it: visual grading vs untreated controls. The procedure, abridged: as §4
Assay [20] relates to Matricaria inodora (MATIN). Description: Herbicidal pre-emergence action, 320 g/ha (Table C3). The conditions noted are these: visual grading after ca. 3 weeks vs untreated controls.
Excerpt: as §2, with “Tables C1” for “Tables A1”, “to C6” for “to A11”, “plants using” for “plants and”, “to 320” for “to 1280”

Assay [21] deals with Stellaria media (STEME). Nature of the assay: Herbicidal pre-emergence action, 320 g/ha, STEME. The note with it: visual grading after ca. 3 weeks. Summed up: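 Weed seeds sown in sandy loam pots; WP or EC formulations applied pre-emergence to the covering soil surface at 320 g/ha with 0.5% additive in 600 L water/ha. Greenhouse growth; visual damage scored after ca. 3 weeks versus untreated controls (100% = plants died, 0% = as control).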

Assay [22] concerns Amaranthus retroflexus (AMARE). Nature of the assay: Herbicidal pre-emergence action, 320 g/ha, AMARE. The conditions noted are these: visual grading after ca. 3 weeks.
Excerpt: as §2, with “plants).” for “plants). Tables A1 to A11 below, show the effects of selected compounds of the general formula (I) according to Table 1 on various harmful plants and an application rate corresponding to 1280 g/ha obtained by the experimental procedure mentioned above.”
Tables C1 to C6 below, show the effects of selected compounds of the general formula (I) according to Table 1 on various harmful plants using an application rate corresponding to 320 g/ha obtained by the experimental procedure mentioned above.

For assay [23], the system named is Abutilon theophrasti (ABUTH). Description: Herbicidal post-emergence action, 320 g/ha, ABUTH. The conditions noted are these: visual grading after ca. 3 weeks. Summed up: as §5
Assay [24] relates to Kochia scoparia (KCHSC). Nature of the assay: Herbicidal pre-emergence action, 320 g/ha (Table C1). The conditions noted are these: visual grading after ca. 3 weeks vs untreated controls.
Excerpt: as §2, with “Tables C1” for “Tables A1”, “to C6” for “to A11”, “plants using” for “plants and”, “to 320” for “to 1280”

The subject of assay [25] is Veronica persica (VERPE). Nature of the assay: Herbicidal post-emergence action, 320 g/ha, VERPE. The note with it: visual grading after ca. 3 weeks. Summed up: as §5

For `CCOC(=O)Oc1c(C)nn(C)c(=O)c1Oc1cc(Cl)ccc1Cl` [Example I-086], the “herbicidal effect LOLRI” value was found to be 100% in [1], 100% in assay [7], 90% in assay [11] and 90% in assay [12]. The “herbicidal effect MATIN” value in assay [2] is 100%; in assay [8], 90%. Also, the entries for the “herbicidal effect STEME” value in [3], in [9] and in assay [13] were 100%, 100% and 90%, respectively. Besides, the “herbicidal effect VERPE” value in assay [4] is given as 90%. The “herbicidal effect AMARE” value is 90% in [5], 100% in assay [10] and 90% in assay [14]. Moreover, the “herbicidal effect ABUTH” value in assay [6] is 90%.

On to `CC(=O)Oc1c(C)nn(C)c(=O)c1Oc1ccccc1C(F)(F)F` [Example I-030], for which the “herbicidal effect KCHSC” value in assay [15] and in assay [17] was 90% in each case. Further, the “herbicidal effect LOLRI” value in [1] is on record as 100%; in assay [7] it was 90%; in assay [11], 90%; in assay [12], 90%. In addition, the entries for the “herbicidal effect MATIN” value in [2], in assay [8] and in assay [20] were 100%, 90% and 100%, respectively. For the same compound, the “herbicidal effect STEME” value amounted to 100% in assay [3], 100% in [9], 100% in [21] and 90% in [13]. Moreover, the “herbicidal effect VERPE” value in assay [4] and in assay [19] was 90% in each case. The “herbicidal effect AMARE” value in assay [5] is 100%; in assay [10], 90%; in assay [22], 90%; in assay [14], 90%. Also, the entries for the “herbicidal effect ABUTH” value in assay [6] and in [23] were 100% and 90%, respectively. The “herbicidal effect ECHCG” value in [16] is given as 90%. Moreover, in [18], the “herbicidal effect SETVI” value was 90%.

Regarding `Cc1nn(C)c(=O)c(Oc2cc(F)c(F)cc2C2CC2)c1OC(=O)C(C)C` [Example I-102], the “herbicidal effect KCHSC” value came to 90% in [15], 100% in assay [17] and 90% in [24]. Also, the “herbicidal effect LOLRI” value in assay [1] and in [7] was 90% throughout. The “herbicidal effect MATIN” value in assay [2] and in assay [8] was 100% each time. In addition, the “herbicidal effect STEME” value in [3] stood at 100%; in [9], 100%; in assay [21], 90%; in assay [13] it was 90%. Besides, the “herbicidal effect AMARE” value in assay [5] is on record as 100%; in assay [10], 100%; in [14], 90%. The “herbicidal effect ABUTH” value in assay [6] turned out to be 100%. For the same compound, the “herbicidal effect VERPE” value in assay [19] and in assay [25] was 90% throughout.

In the case of `Cc1nn(C)c(=O)c(Oc2ccc(Cl)cc2)c1O` [Example I-002], the “herbicidal effect KCHSC” value in assay [15] and in assay [24] was 90% in each case.

For the origin of these results see US20240239755A1, “SUBSTITUTED PYRIDAZINONES, SALTS OR N-OXIDES THEREOF AND THEIR USE AS HERBICIDALLY ACTIVE SUBSTANCES” (Bayer Aktiengesellschaft, priority 2021, published 2024).
